The results in this text go back to article PMC7738880, “Identification of novel CD44v6-binding peptides that block CD44v6 and deliver a pro-apoptotic peptide to tumors to inhibit tumor growth and metastasis in mice” (Theranostics, 2021).

One may read the Kd as the free concentration of one partner at which half of the binding sites on the other are occupied at equilibrium, for simple one-to-one binding.

Data set [1] addresses T1, recombinant human CD44v6-Fc protein (Homo sapiens, UniProt P16070).
T1 sequence (P16070 386-428 limits assumed): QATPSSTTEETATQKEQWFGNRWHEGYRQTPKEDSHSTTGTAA
Description: ELISA of peptide binding to recombinant proteins. The settings on record: 10 µM biotin-labeled peptide, 4 °C, 1 h. On the procedure: (§1) Supplementary Information
Supplementary Materials and Methods […]
peroxidase-conjugated neutravidin (1:10,000 dilution; ThermoFisher Scientific, Waltham, MA) for 30 min at room temperature. Enzymatic activity was detected using a 3,3ʹ,5,5ʹ-tetramethylbenzidine substrate (ThermoFisher Scientific), and the reaction was stopped using 2 M […]
sulfuric acid. […]
Enzyme-linked immunosorbent assay (ELISA) of peptide binding to recombinant proteins ELISA plates were coated overnight with 100 μL of recombinant human CD44v6-Fc and CD44-Fc proteins (R&D Systems, Minneapolis, MN) at a concentration of 1 μg/mL in Tris-buffered saline with 0.05% Tween-20. BSA was used as a control. After coating, plates were incubated with 10 µM biotin-labeled CD44v6-binding peptides at 4 °C for 1 h. After washing, the cells were incubated with horseradish peroxidase-conjugated neutravidin (1:10,000 dilution; ThermoFisher Scientific) for 30 min at room temperature. Detection of enzymatic activity and measurement of absorbance was performed as described above. Relative binding was calculated based on the absorbance, in which the absorbance of BSA was set to 1.
In general terms: ELISA stands for enzyme-linked immunosorbent assay.

The test system of data set [2] is 4T1 cells. As to the kind of experiment: Saturation cell binding assay, 4T1. Also noted: species or system mouse. The settings on record: biotin-labeled peptide 0-256 µM, 4 °C, 1 h. The method, then: as §1
(§2) Supplementary Materials and Methods
(§3) Saturation binding assays to determine the cellular binding affinities of peptides Cells (5 × 10^3 cells per well in a 96-well plate) were incubated with 1% bovine serum albumin (BSA) for 30 min and with different concentrations of biotin-labeled peptides (0, 2, 4, 8, 16, 32, 64, 128, and 256 µM) at 4 °C for 1 h. After washing, the cells were incubated with horseradish peroxidase-conjugated neutravidin (1:10,000 dilution; ThermoFisher Scientific, Waltham, MA) for 30 min at room temperature. Enzymatic activity was detected using a 3,3ʹ,5,5ʹ-tetramethylbenzidine substrate (ThermoFisher Scientific), and the reaction was stopped using 2 M sulfuric acid. The absorbance at 450 nm was measured in each well using a microplate reader (Tecan, Mannedorf, Switzerland). The KD values were then calculated using GraphPad Prism 6 software (GraphPad Inc., La Jolla, CA). […]
(§4) 10 µM biotin-labeled CD44v6-binding peptides at 4 °C for 1 h. […]
(§5) Scientific) for 30 min at room temperature. […]

The test system of data set [3] is MCF7 cells. Description: Saturation cell binding assay, MCF7. Also noted: species or system human. Particulars: biotin-labeled peptide 0-256 µM, 4 °C, 1 h, CD44v6-low cells. On the procedure: as §1, §2, §3, §4, §5
In data set [4] the test system is 4T1-luc cells. As to the kind of experiment: 4T1-luc orthotopic spontaneous metastasis model. The settings on record: for tumor growth, lung metastasis, survival rate and TUNEL-stained apoptosis, peptide combined with crizotinib 12.5 mg/kg: peptide 14.2 mg/kg i.v. plus crizotinib 12.5 mg/kg oral, versus crizotinib alone 25 mg/kg; for primary tumor growth, lung metastasis and survival, peptide combined with crizotinib 25 mg/kg: peptide 14.2 mg/kg i.v. plus crizotinib 25 mg/kg oral, versus single treatment; for luminescence signals and total photon flux from the whole body: n = 6/group; for number of lung tumor nodules: relative to saline and control peptide; for hematologic parameters and liver and kidney functional marker levels: peptide alone or in combination with crizotinib, compared with control peptide, n = 3/group. In kind it is in vivo. On the procedure: 4T1-luc cells (1 × 10^6 cells) were orthotopically inoculated into the mammary fat pads in 6-week-old female BALB/c mice. Panc-1 cells (1 × 10^6 cells) were subcutaneously inoculated into lower right flank in 6-week-old female BALB/c nude mice To monitor 4T1-luc tumor growth, mice were intraperitoneally injected with D-luciferin (150 mg/kg body weight), incubated for 10 min, and subjected to a whole-body bioluminescence imaging using the IVIS imaging system (Perkin Elmer). At two weeks after the inoculation, mice were randomly sorted into groups based on the luminescence intensity (4T1-luc) or tumor size (Panc-1). CD44v6-binding peptides were administered intravenously to 4T1 tumor-bearing mice (n = 6 per group) through the tail vein (14.2 mg/kg body weight, thrice weekly for three weeks) alone or in combination with crizotinib. Crizotinib in 5% DMSO was administered orally (12.5 and 25 mg/kg body weight, twice weekly for three weeks). CD44v6-targeted pro-apoptotic peptides or CD44v6-binding peptides and pro-apoptotic peptide in combination were intravenously administered to 4T1 or Panc-1 tumor-bearing mice (n = 10 per group) through the tail vein (10 mg/kg body weight, thrice weekly for 3 weeks). Primary tumor growth was monitored by measuring tumor volumes using a caliper and total photon flux in the whole body using the IVIS imaging system. The body weights and tumor ulceration were monitored throughout the treatment period. At the end of the treatments, half of the mice were used for the collection of blood, sacrificed, and the primary tumor weights and numbers of metastatic tumor nodules in the isolated lungs were determined. The remaining mice were maintained until death to determine the survival rates. The hematological parameters and liver and kidney function markers in plasma and serum samples were analyzed as described above. The normal ranges of hematological parameters of the BALB/c mouse and BALB/c nude mouse were obtained from Charles River Laboratories website (www.criver.com).

Data set [5] has as its system 4T1 cells. Description: Transwell cell migration and invasion assays, 4T1. In kind it is cell-based, mouse. Particulars: HGF 25 ng/mL, 24 h. The method, then:
Transwell chambers (24-wells) with 8 μm pores were obtained from Corning (Corning, NY). MDA-MB231 and 4T1 cells (1 × 10^6 cells) were harvested, resuspended in 200 μL of DMEM containing CD44v6-binding peptides (20 µM), and then seeded into the upper chamber of the transwell chambers. The lower chamber was filled with 600 μL of DMEM containing 25 ng/mL HGF. After 24 h of incubation, cells that migrated into the reverse side of the transwell membrane were fixed with methanol, stained with crystal violet, and then counted under a light microscope. An average of five visual fields was obtained. For invasion assays, the transwell membrane was pre-coated with 300 µg/mL of Matrigel (Corning). […]
phosphorylation in 4T1 cells. (C-D) Transwell migration (C) and invasion (D) assays of 4T1 cells pre-treated or not with 5 μg/mL NLN and NEW for 10 min and subsequently treated with 25 ng/mL HGF for 10 min, followed by incubation for 24 h. Scale bars = 20 μm. Graphs (right panels) represent the quantification of the cell numbers in ten randomly selected fields. Data are shown as the means ± S.E. of three independent experiment. **, P < 0.01; ***, P < 0.001; n.s, not significant compared with HGF by one-way ANOVA.

The mark [6] stands for this setting: peptide 14.2 mg/kg i.v. thrice weekly for three weeks.

Residues, ends and D or L forms follow the SMILES beside them.

Turning to `CC[C@H](C)[C@H](NC(=O)[C@@H](NC(=O)[C@H](CC(N)=O)NC(=O)[C@H](CC(C)C)NC(=O)[C@H](CC(N)=O)NC(=O)[C@@H](N)CS)[C@@H](C)O)C(=O)N[C@@H](CC(=O)O)C(=O)N[C@H](C(=O)N[C@@H](CS)C(=O)O)[C@@H](C)O` [NLN] (H-CNLNTIDTC-OH; N-terminus and C-terminus assumed), in data set [1], the “binding to recombinant CD44v6-Fc protein coated on plates compared with CD44-Fc and albumin” value is on record as “preferentially bound”. The same molecule had a Kd in data set [2] of 17 ± 7 µM. The molecule further gave a Kd in data set [3] of 300 ± 250 µM. In data set [4], the “tumor growth, lung metastasis, survival rate and TUNEL-stained apoptosis, peptide combined with crizotinib 12.5 mg/kg” value was “more efficiently than crizotinib alone”; the “primary tumor growth, lung metastasis and survival, peptide combined with crizotinib 25 mg/kg” value is listed as “more efficiently than a single treatment”; the “hematologic parameters and liver and kidney functional marker levels” value is reported as “not significantly changed or remained within normal ranges”. Also, in data set [4] (setting [6]), the body weight result is listed as “little effect”, the monocyte population entry is reported as “decreased below the normal ranges”, the survival rate entry is “increased” and the “volumes of primary tumors” value is given as “decreased”. Moreover, in data set [4] (setting [6]), the “weights of isolated primary tumors” value is “decreased”; the “luminescence signals and total photon flux from the whole body” value was “decreased”; the “number of lung tumor nodules” value is recorded as “reduced number”. Further, in data set [5], the “HGF-induced cell migration and invasion, 4T1” value was “inhibited”.
`CC(C)C[C@H](NC(=O)[C@H](CCC(N)=O)NC(=O)[C@H](Cc1c[nH]c2ccccc12)NC(=O)[C@H](CCC(=O)O)NC(=O)[C@H](CC(N)=O)NC(=O)[C@@H](N)CS)C(=O)N[C@@H](CCCCN)C(=O)N[C@@H](CO)C(=O)N[C@@H](CS)C(=O)O` [NEW] (H-CNEWQLKSC-OH; N-terminus and C-terminus assumed): the “binding to recombinant CD44v6-Fc protein coated on plates compared with CD44-Fc and albumin” value in data set [1] is listed as “preferentially bound”. This molecule had a dissociation constant Kd in data set [2] of 29 ± 16 µM. Further, binding in data set [3] was characterised by a dissociation constant (Kd) of 122 ± 115 µM. Besides, in data set [4], the “tumor growth, lung metastasis, survival rate and TUNEL-stained apoptosis, peptide combined with crizotinib 12.5 mg/kg” value is reported as “more efficiently than crizotinib alone”; the “primary tumor growth, lung metastasis and survival, peptide combined with crizotinib 25 mg/kg” value is reported as “more efficiently than a single treatment”; the “hematologic parameters and liver and kidney functional marker levels” value is given as “not significantly changed or remained within normal ranges”. In data set [4] (setting [6]), the body weight result is given as “little effect”, the survival rate entry was “increased”, the “volumes of primary tumors” value was “decreased” and the “weights of isolated primary tumors” value is on record as “decreased”. Besides, in data set [4] (setting [6]), the “luminescence signals and total photon flux from the whole body” value is “decreased”; the “number of lung tumor nodules” value is on record as “reduced number”. For the same molecule, in data set [5], the “HGF-induced cell migration and invasion, 4T1” value is on record as “inhibited”.
